The term DC50 denotes the concentration at which degradation of the target reaches its halfway point.

SMILES strings stand for the structures. Some results are limits rather than exact numbers.

This assay deals with T1, AR (Homo sapiens, UniProt P10275).
T1 construct: endogenous in cells; host or cells: VCaP cells
T1 sequence (P10275 1-920): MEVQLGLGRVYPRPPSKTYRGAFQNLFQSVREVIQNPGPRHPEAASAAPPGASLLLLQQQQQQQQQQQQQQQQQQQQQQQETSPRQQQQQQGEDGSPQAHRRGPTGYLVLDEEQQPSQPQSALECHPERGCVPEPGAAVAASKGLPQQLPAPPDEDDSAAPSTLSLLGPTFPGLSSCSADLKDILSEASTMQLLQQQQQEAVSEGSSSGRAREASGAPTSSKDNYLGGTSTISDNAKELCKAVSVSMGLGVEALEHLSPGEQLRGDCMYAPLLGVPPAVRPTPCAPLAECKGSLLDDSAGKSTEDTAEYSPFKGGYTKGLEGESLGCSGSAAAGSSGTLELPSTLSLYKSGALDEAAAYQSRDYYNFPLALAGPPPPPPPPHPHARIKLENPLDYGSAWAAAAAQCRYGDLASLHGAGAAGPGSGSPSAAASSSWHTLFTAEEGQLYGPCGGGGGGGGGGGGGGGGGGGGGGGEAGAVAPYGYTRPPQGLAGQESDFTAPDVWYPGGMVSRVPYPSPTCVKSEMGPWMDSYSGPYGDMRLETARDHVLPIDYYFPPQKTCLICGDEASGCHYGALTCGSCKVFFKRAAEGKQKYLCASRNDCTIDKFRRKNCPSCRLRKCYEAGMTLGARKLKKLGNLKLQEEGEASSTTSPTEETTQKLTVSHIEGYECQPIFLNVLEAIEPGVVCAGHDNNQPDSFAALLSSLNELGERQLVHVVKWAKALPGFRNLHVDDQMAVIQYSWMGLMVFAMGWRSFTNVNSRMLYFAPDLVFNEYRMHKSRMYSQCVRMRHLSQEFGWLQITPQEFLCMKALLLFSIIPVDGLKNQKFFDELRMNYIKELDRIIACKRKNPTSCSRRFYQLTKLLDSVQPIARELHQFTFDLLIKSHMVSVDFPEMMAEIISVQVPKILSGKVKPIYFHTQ
The experiment in a line: VCAP AR Degradation Assay. The conditions noted are these: for Y (AR degradation efficiency, % of DMSO control): class symbols *; for DC50: class symbols A-C, read-out: DC50. Format: cell-based. A digest of the protocol: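 Compounds were plated as 10-point 1:3 series reaching 5 μM final, then VCaP cells were seeded onto them and incubated 24 h at 37 °C. Cells were lysed cold, and total AR was measured by sandwich ELISA relative to 0.1% DMSO wells.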

On to `CCc1cc(N2C(=S)N(c3cnc(C#N)c(C(F)(F)F)c3)C(=O)C2(C)C)ccc1OCCN1CCN(CC(=O)Nc2cc(F)cc(NC3CCC(=O)NC3=O)c2)C(C)(C)C1` (stereo not drawn) [Example 77, 2-(4-(2-(4-(3-(6-cyano-5-(trifluoromethyl)pyridin-3-yl)-5,5-dimethyl-4-oxo-2-thioxoimidazolidin-1-yl)-2-ethylphenoxy)ethyl)-2,2-dimethylpiperazin-1-yl)-N-(3-(2,6-dioxopiperidin-3-ylamino)-5-fluorophenyl)acetamide], for which the “Y (AR degradation efficiency, % of DMSO control)” value was “* (0<Y<=25%)” and the DC50 was < 100 nM.
For `CCc1cc(N2C(=S)N(c3cnc(C#N)c(C(F)(F)F)c3)C(=O)C2(C)C)ccc1OCCN1CCN(CC(=O)Nc2cc(Cl)cc(NC3CCC(=O)NC3=O)c2)C(C)(C)C1` (stereo not drawn) [Example 78, N-(3-chloro-5-(2,6-dioxopiperidin-3-ylamino)phenyl)-2-(4-(2-(4-(3-(6-cyano-5-(trifluoromethyl)pyridin-3-yl)-5,5-dimethyl-4-oxo-2-thioxoimidazolidin-1-yl)-2-ethylphenoxy)ethyl)-2,2-dimethylpiperazin-1-yl)acetamide] the same measures were “* (0<Y<=25%)” and < 100 nM.
Take `CCc1cc(N2C(=S)N(c3ccc(C#N)c(C(F)(F)F)c3)C(=O)C2(C)C)ccc1OCCN1CCN(CC(=O)Nc2cc(Cl)cc(NC3CCC(=O)NC3=O)c2)C(C)(C)C1` (stereo not drawn) [Example 79, N-(3-chloro-5-(2,6-dioxopiperidin-3-ylamino)phenyl)-2-(4-(2-(4-(3-(4-cyano-3-(trifluoromethyl)phenyl)-5,5-dimethyl-4-oxo-2-thioxoimidazolidin-1-yl)-2-ethylphenoxy)ethyl)-2,2-dimethylpiperazin-1-yl)acetamide]: the “Y (AR degradation efficiency, % of DMSO control)” value is listed as “** (25%<Y<=35%)” and the DC50 is < 100 nM.
With `CC(F)(F)c1cc(N2C(=S)N(c3cnc(C#N)c(C(F)(F)F)c3)C(=O)C2(C)C)ccc1OCCN1CCN(CC(=O)Nc2cc(F)cc(NC3CCC(=O)NC3=O)c2)CC1` (stereo not drawn) [Example 80, 2-(4-(2-(4-(3-(6-cyano-5-(trifluoromethyl)pyridin-3-yl)-5,5-dimethyl-4-oxo-2-thioxoimidazolidin-1-yl)-2-(1,1-difluoroethyl)phenoxy)ethyl)piperazin-1-yl)-N-(3-(2,6-dioxopiperidin-3-ylamino)-5-fluorophenyl)acetamide], the “Y (AR degradation efficiency, % of DMSO control)” value is recorded as “* (0<Y<=25%)” and the DC50 is < 100 nM.
On to `CCc1cc(N2C(=S)N(c3cnc(C#N)c(C(F)(F)F)c3)C(=O)C2(C)C)ccc1OCCN1CCN(CC(=O)Nc2cccc(NC3CCC(=O)NC3=O)c2)[C@H](C)C1` (stereo partly drawn) [Example 81, 2-((R)-4-(2-(4-(3-(6-cyano-5-(trifluoromethyl)pyridin-3-yl)-5,5-dimethyl-4-oxo-2-thioxoimidazolidin-1-yl)-2-ethylphenoxy)ethyl)-2-methylpiperazin-1-yl)-N-(3-(2,6-dioxopiperidin-3-ylamino)phenyl)acetamide], for which the “Y (AR degradation efficiency, % of DMSO control)” value is reported as “* (0<Y<=25%)” and the DC50 was < 100 nM.
Turning to `CC(F)(F)c1cc(N2C(=S)N(c3cnc(C#N)c(C(F)(F)F)c3)C(=O)C2(C)C)ccc1OCCN1CCN(CC(=O)Nc2cc(NC3CCC(=O)NC3=O)cc(F)c2F)CC1` (stereo not drawn) [Example 82, 2-(4-(2-(4-(3-(6-cyano-5-(trifluoromethyl)pyridin-3-yl)-5,5-dimethyl-4-oxo-2-thioxoimidazolidin-1-yl)-2-(1,1-difluoroethyl)phenoxy)ethyl)piperazin-1-yl)-N-(5-(2,6-dioxopiperidin-3-ylamino)-2,3-difluorophenyl)acetamide], the “Y (AR degradation efficiency, % of DMSO control)” value is “* (0<Y<=25%)” and the DC50 is < 100 nM.
As to `CCc1cc(N2C(=S)N(c3cnc(C#N)c(C(F)(F)F)c3)C(=O)C2(C)C)ccc1OCCN1CCN(CC(=O)Nc2cc(NC3CCC(=O)NC3=O)cc(F)c2F)C(C)(C)C1` (stereo not drawn) [Example 83, 2-(4-(2-(4-(3-(6-cyano-5-(trifluoromethyl)pyridin-3-yl)-5,5-dimethyl-4-oxo-2-thioxoimidazolidin-1-yl)-2-ethylphenoxy)ethyl)-2,2-dimethylpiperazin-1-yl)-N-(5-(2,6-dioxopiperidin-3-ylamino)-2,3-difluorophenyl)acetamide], the “Y (AR degradation efficiency, % of DMSO control)” value is given as “* (0<Y<=25%)” and the DC50 was < 100 nM.
In the case of `CC1(C)C(=O)N(c2cnc(C#N)c(C(F)(F)F)c2)C(=S)N1c1ccc(OCCN2CCN(CC(=O)Nc3cc(Cl)cc(NC4CCC(=O)NC4=O)c3)CC2)c(C2CC2)c1` (stereo not drawn) [Example 84, N-(3-chloro-5-(2,6-dioxopiperidin-3-ylamino)phenyl)-2-(4-(2-(4-(3-(6-cyano-5-(trifluoromethyl)pyridin-3-yl)-5,5-dimethyl-4-oxo-2-thioxoimidazolidin-1-yl)-2-cyclopropylphenoxy)ethyl)piperazin-1-yl)acetamide], the “Y (AR degradation efficiency, % of DMSO control)” value is on record as “* (0<Y<=25%)” and the 50% degradation concentration (DC50) is < 100 nM.
As for `CCc1cc(N2C(=S)N(c3cnc(C#N)c(C(F)(F)F)c3)C(=O)C23CCC3)ccc1OCCN1CCN(CC(=O)Nc2cc(Cl)cc(NC3CCC(=O)NC3=O)c2)CC1` (stereo not drawn) [Example 85, N-(3-chloro-5-(2,6-dioxopiperidin-3-ylamino)phenyl)-2-(4-(2-(4-(7-(6-cyano-5-(trifluoromethyl)pyridin-3-yl)-8-oxo-6-thioxo-5,7-diazaspiro[3.4]octan-5-yl)-2-ethylphenoxy)ethyl)piperazin-1-yl)acetamide], the “Y (AR degradation efficiency, % of DMSO control)” value is reported as “* (0<Y<=25%)” and the half-maximal degradation concentration (DC50) is < 100 nM.
As to `CC1(C)C(=O)N(c2cnc(C#N)c(C(F)(F)F)c2)C(=S)N1c1ccc(OCCN2CCN(CC(=O)Nc3cc(NC4CCC(=O)NC4=O)ccc3F)CC2)cc1` (stereo not drawn) [Example 86, 2-(4-(2-(4-(3-(6-cyano-5-(trifluoromethyl)pyridin-3-yl)-5,5-dimethyl-4-oxo-2-thioxoimidazolidin-1-yl)phenoxy)ethyl)piperazin-1-yl)-N-(5-(2,6-dioxopiperidin-3-ylamino)-2-fluorophenyl)acetamide], the “Y (AR degradation efficiency, % of DMSO control)” value was “** (25%<Y<=35%)” and the DC50 is < 100 nM.
For `CCc1cc(N2C(=S)N(c3ccc(C#N)c(C(F)(F)F)c3)C(=O)C2(C)C)ccc1OCCN1CCN(CC(=O)Nc2cc(Cl)cc(NC3CCC(=O)NC3=O)c2)[C@H](C)C1` (stereo partly drawn) [Example 87, N-(3-chloro-5-(2,6-dioxopiperidin-3-ylamino)phenyl)-2-((R)-4-(2-(4-(3-(4-cyano-3-(trifluoromethyl)phenyl)-5,5-dimethyl-4-oxo-2-thioxoimidazolidin-1-yl)-2-ethylphenoxy)ethyl)-2-methylpiperazin-1-yl)acetamide], the “Y (AR degradation efficiency, % of DMSO control)” value was “* (0<Y<=25%)” and the DC50 is < 100 nM.
For `CCc1cc(N2C(=S)N(c3ccc(C#N)c(C(F)(F)F)c3)C(=O)C2(C)C)ccc1CCCN1CCN(CC(=O)Nc2cc(F)cc(NC3CCC(=O)NC3=O)c2)CC1` (stereo not drawn) [Example 88, 2-(4-(3-(4-(3-(4-cyano-3-(trifluoromethyl)phenyl)-5,5-dimethyl-4-oxo-2-thioxoimidazolidin-1-yl)-2-ethylphenyl)propyl)piperazin-1-yl)-N-(3-(2,6-dioxopiperidin-3-ylamino)-5-fluorophenyl)acetamide] the same measures were “* (0<Y<=25%)” and < 100 nM.
